Legend:
[1] = biological target: FGFR3-BAIAP2L1 Ba/F3 cells (Homo sapiens, UniProt P22607); assay: Ba/F3 cell viability assay (CellTiter-Glo 2.0), FGFR3-BAIAP2L1 Ba/F3; type: cell-based; settings: for Ba/F3 FGFR1/FGFR3 Selectivity: FGFR3 > FGFR1 selectivity ratio in Ba/F3 FGFR fusion cell based assays; for IC50: read-out: Ba/F3 Cells FGFR3 (IC50 nM), FGFR3-BAIAP2L1 Ba/F3 cells, 48 hours, Cell Titer Glo 2.0
In short: (§1)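 IL3-independent Ba/F3 lines driven by FGFR1-BCR or FGFR3-BAIAP2L1 fusions, in RPMI1640/10% FBS. 9-dose 10-fold series from 30 μM, triplicate, 48 h at 37 °C; viability by CellTiter-Glo 2.0 ATP luminescence relative to DMSO control, IC50 from 4-parameter sigmoidal fit.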

[2] = test system: RT112/84 cells (FGFR3-fusion); assay: RT112/84 cancer cell line cell viability assay (CellTiter-Glo 2.0); type: cell-based; settings: Homo sapiens, 72 hours, Cell Titer Glo 2.0
In short: (§2)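 RT112/84, UM-UC-14 and KG-1 cells (10,000/well, RPMI1640 with 10% FBS) were treated with a 9-dose, 10-fold series starting at 30 μM, in triplicate, for 72 h at 37 °C. ATP was read by CellTiter-Glo 2.0 luminescence relative to DMSO controls, and IC50 was fitted with a 4-parameter sigmoidal model.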

[3] = biological target: FGFR1-BCR Ba/F3 cells (Homo sapiens, UniProt P11362); assay: Ba/F3 cell viability assay (CellTiter-Glo 2.0), FGFR1-BCR Ba/F3; type: cell-based; settings: read-out: Ba/F3 Cells FGFR1 (IC50 nM), 48 hours, Cell Titer Glo 2.0
FGFR1-BCR Ba/F3 cells, sequence (P11362 22-822 limits assumed, change not shown): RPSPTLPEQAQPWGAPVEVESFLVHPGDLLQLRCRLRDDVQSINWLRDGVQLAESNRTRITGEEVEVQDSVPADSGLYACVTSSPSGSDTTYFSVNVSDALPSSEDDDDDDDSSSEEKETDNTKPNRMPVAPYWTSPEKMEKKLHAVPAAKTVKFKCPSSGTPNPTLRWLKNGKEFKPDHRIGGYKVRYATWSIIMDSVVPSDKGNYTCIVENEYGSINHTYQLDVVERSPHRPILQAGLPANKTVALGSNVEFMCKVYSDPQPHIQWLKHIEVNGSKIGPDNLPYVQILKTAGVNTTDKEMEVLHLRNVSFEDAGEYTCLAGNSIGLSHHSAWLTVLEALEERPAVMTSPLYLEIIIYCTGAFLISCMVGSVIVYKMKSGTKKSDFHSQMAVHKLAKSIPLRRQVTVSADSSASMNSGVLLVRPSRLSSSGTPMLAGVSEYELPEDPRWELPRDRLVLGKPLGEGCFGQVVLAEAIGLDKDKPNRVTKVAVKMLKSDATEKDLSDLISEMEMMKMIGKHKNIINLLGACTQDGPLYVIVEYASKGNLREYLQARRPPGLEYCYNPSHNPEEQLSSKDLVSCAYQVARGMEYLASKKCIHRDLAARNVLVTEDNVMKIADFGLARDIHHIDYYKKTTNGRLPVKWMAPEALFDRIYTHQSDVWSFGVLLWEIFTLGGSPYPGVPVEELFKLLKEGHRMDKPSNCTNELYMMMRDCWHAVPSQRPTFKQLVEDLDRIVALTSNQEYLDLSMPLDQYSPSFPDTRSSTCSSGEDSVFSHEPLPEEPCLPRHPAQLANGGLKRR
In short: as §1

[4] = test system: UM-UC-14 cells (FGFR3(S249C)); assay: UM-UC-14 cancer cell line cell viability assay (CellTiter-Glo 2.0); type: cell-based; settings: UMUC14, 72 hours, Cell Titer Glo 2.0
In short: as §2

[5] = biological target: FGFR3 (Homo sapiens (Human), UniProt P22607); assay: Kinase assay, binding constants (Kd), kinase-tagged T7 phage, qPCR
FGFR3, sequence (P22607 23-806): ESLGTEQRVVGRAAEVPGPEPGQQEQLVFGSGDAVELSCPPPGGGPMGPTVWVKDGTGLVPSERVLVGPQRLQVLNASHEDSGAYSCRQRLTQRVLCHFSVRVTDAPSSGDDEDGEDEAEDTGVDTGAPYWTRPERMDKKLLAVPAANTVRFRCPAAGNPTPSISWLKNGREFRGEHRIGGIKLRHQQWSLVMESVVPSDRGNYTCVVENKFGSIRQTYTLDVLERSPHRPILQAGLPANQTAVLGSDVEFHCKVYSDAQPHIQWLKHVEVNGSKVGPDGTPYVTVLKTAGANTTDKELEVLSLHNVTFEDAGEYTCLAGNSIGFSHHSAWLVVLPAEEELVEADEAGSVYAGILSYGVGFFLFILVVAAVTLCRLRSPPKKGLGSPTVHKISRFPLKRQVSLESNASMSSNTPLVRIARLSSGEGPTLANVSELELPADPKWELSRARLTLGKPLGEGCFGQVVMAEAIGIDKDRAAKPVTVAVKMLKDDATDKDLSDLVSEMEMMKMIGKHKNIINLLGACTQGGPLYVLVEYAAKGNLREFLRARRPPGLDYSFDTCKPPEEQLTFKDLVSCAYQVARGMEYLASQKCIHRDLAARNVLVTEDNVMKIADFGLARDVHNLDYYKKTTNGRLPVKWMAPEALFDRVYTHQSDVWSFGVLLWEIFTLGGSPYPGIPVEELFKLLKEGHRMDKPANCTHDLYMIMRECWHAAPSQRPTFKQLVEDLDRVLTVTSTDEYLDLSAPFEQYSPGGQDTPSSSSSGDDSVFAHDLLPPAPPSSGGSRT
In short: (§3)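 Competition binding: T7 phage-tagged kinase + biotin-ligand beads + compound (11 pts, 3-fold, 0.9% DMSO). Elution 30 min RT with free ligand; qPCR quantitation. Kd via Hill fit, slope −1.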

[6] = biological target: FGFR3 (V555M) (Homo sapiens (Human), UniProt P22607, V555M); assay: as above; settings: V555M mutant
FGFR3 (V555M), sequence (P22607 23-806 V555M): as the sequence (P22607 23-806) above, with V533M counted along it
In short: as §3

[7] = biological target: FGFR4 (Homo sapiens (Human), UniProt P22455); assay: as above
FGFR4, sequence (P22455 22-802): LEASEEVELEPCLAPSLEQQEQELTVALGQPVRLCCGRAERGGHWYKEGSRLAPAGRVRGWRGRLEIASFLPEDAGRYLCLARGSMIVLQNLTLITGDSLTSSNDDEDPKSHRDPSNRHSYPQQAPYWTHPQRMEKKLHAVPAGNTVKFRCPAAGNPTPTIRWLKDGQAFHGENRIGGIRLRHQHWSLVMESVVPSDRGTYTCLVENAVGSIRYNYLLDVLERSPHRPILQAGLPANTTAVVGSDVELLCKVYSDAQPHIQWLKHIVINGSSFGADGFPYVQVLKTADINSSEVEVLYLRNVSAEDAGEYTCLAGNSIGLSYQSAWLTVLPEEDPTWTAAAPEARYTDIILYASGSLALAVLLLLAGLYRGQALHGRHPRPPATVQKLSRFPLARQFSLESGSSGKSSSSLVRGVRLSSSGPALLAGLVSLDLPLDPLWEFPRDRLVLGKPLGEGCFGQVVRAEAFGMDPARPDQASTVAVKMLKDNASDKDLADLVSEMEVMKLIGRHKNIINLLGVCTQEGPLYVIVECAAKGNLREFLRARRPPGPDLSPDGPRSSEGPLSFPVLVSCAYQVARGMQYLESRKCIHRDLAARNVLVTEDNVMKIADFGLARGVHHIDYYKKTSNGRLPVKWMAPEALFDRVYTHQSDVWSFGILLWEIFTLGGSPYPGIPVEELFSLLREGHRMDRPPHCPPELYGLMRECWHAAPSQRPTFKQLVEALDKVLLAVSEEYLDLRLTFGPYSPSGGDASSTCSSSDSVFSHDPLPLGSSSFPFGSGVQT
In short: as §3

[8] = biological target: FGFR1 (Homo sapiens (Human), UniProt P11362); assay: as above
FGFR1, sequence (P11362 22-822): as the sequence (P11362 22-822 limits assumed, change not shown) above
In short: as §3

[9] = biological target: FGFR2 (Homo sapiens (Human), UniProt P21802); assay: as above
FGFR2, sequence (P21802 22-821): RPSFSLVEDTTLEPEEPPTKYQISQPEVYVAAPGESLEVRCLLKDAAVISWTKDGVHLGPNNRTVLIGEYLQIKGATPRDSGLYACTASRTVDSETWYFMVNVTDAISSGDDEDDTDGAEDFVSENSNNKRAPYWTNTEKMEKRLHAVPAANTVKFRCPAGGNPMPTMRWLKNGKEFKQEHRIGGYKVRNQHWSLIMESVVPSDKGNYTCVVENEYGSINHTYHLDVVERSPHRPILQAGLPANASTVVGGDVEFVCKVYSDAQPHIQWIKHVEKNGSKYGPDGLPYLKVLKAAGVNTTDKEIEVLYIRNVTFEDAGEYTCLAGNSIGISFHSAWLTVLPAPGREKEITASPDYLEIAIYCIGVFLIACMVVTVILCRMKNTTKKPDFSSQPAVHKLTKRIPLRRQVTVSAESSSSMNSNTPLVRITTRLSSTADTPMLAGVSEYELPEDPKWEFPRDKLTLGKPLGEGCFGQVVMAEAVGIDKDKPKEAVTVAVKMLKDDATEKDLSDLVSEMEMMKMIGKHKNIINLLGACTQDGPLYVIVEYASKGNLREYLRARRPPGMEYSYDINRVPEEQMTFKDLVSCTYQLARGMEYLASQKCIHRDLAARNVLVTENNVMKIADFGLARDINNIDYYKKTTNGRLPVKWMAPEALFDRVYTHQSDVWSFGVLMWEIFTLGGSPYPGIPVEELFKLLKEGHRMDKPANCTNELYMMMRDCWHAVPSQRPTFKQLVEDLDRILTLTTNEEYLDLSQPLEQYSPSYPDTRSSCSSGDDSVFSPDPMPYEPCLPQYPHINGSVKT
In short: as §3

[10] = test system: KG-1 cells (FGFR1-fusion); assay: KG-1 cancer cell line cell viability assay (CellTiter-Glo 2.0); type: cell-based; settings: Homo sapiens, 72 hours, Cell Titer Glo 2.0
In short: as §2

FGFR3-BAIAP2L1 Ba/F3 cells, sequence (P22607 23-806 limits assumed, change not shown): as the sequence (P22607 23-806) above

SMILES	Ba/F3 FGFR1/FGFR3 Selectivity [1]	IC50 [1] [nM]	IC50 [2] [nM]	IC50 [3] [nM]	IC50 [4] [nM]	Kd [5] [nM]	Kd [6] [nM]	Kd [7] [nM]	Kd [8] [nM]	Kd [9] [nM]	IC50 [10] [nM]
C[C@@H](Oc1ccc2[nH]nc(-c3ccc(N4CC5(CN(C(=O)N(C)C)C5)C4)nc3)c2c1)c1c(Cl)cncc1Cl [Example 47, 6-[5-[5-[(1R)-1-(3,5-dichloro-4-pyridyl)ethoxy]-1H-indazol-3-yl]-2-pyridyl]-N,N-dimethyl-2,6-diazaspiro[3.3]heptane-2-carboxamide]	21	1 to 20	1 to 20	100 to 300	1 to 20	1 to 20	1 to 20	1 to 20	1 to 20	1 to 20	100 to 300
C[C@@H](Oc1ccc2[nH]nc(-c3cnc(N4CCC5(CCC(=O)N5)CC4)nc3)c2c1)c1c(Cl)cncc1Cl [Example 48, 8-[5-[5-[(1R)-1-(3,5-dichloro-4-pyridyl)ethoxy]-1H-indazol-3-yl]pyrimidin-2-yl]-1,8-diazaspiro[4.5]decan-2-one]	8	20 to 100	20 to 100	100 to 300	20 to 100	1 to 20	1 to 20	1 to 20	20 to 100	20 to 100	100 to 300
C[C@@H](Oc1ccc2[nH]nc(-c3cnc(N4CCC5(CC4)CNC(=O)C5)nc3)c2c1)c1c(Cl)cncc1Cl [Example 49, 8-[5-[5-[(1R)-1-(3,5-dichloro-4-pyridyl)ethoxy]-1H-indazol-3-yl]pyrimidin-2-yl]-2,8-diazaspiro[4.5]decan-3-one]	10	1 to 20	20 to 100	100 to 300	20 to 100	1 to 20	1 to 20	1 to 20	20 to 100	20 to 100	100 to 300
C[C@@H](Oc1ccc2[nH]nc(-c3cnc(N4CCC5(CCN(C)C5=O)CC4)nc3)c2c1)c1c(Cl)cncc1Cl [Example 51, 8-[5-[5-[(1R)-1-(3,5-dichloro-4-pyridyl)ethoxy]-1H-indazol-3-yl]pyrimidin-2-yl]-2-methyl-2,8-diazaspiro[4.5]decan-1-one]	7	20 to 100	20 to 100	100 to 300	20 to 100	1 to 20	1 to 20	1 to 20	20 to 100	20 to 100	100 to 300
C[C@@H](Oc1ccc2[nH]nc(-c3cnc(N4CCC5(CCCN5C)CC4)nc3)c2c1)c1c(Cl)cncc1Cl [Example 52, 8-[5-[5-[(1R)-1-(3,5-dichloro-4-pyridyl)ethoxy]-1H-indazol-3-yl]pyrimidin-2-yl]-1-methyl-1,8-diazaspiro[4.5]decane]	7	20 to 100	20 to 100	100 to 300	20 to 100	1 to 20	1 to 20	1 to 20	1 to 20	20 to 100	20 to 100
C[C@@H](Oc1ccc2[nH]nc(-c3cnc(N4CCC5(CCC(=O)N5C)CC4)nc3)c2c1)c1c(Cl)cncc1Cl [Example 54, 8-[5-[5-[(1R)-1-(3,5-dichloro-4-pyridyl)ethoxy]-1H-indazol-3-yl]pyrimidin-2-yl]-1-methyl-1,8-diazaspiro[4.5]decan-2-one]	13	1 to 20	1 to 20	100 to 300	1 to 20	1 to 20	1 to 20	1 to 20	1 to 20	1 to 20	100 to 300
C[C@@H](Oc1ccc2[nH]nc(-c3cnc(N4CCCN(C5COC5)CC4)nc3)c2c1)c1c(Cl)cncc1Cl [Example 60, 5-[(1R)-1-(3,5-Dichloro-4-pyridyl)ethoxy]-3-[2-[4-(oxetan-3-yl)-1,4-diazepan-1-yl]pyrimidin-5-yl]-1H-indazole]	13	1 to 20	20 to 100	100 to 300	20 to 100	1 to 20	1 to 20	1 to 20	1 to 20	1 to 20	100 to 300
Cc1cncc(C)c1[C@@H](C)Oc1ccc2[nH]nc(-c3ccc(N4CC5(C4)CN(S(C)(=O)=O)C5)nc3)c2c1 [Example 139, 5-[(1R)-1-(3,5-dimethyl-4-pyridyl)ethoxy]-3-[6-(2-methylsulfonyl-2,6-diazaspiro[3.3]heptan-6-yl)-3-pyridyl]-1H-indazole]	14	20 to 100	1 to 20	100 to 300	1 to 20	1 to 20	1 to 20	1 to 20	20 to 100	1 to 20	100 to 300
CCOC(=O)N1CC2(C1)CN(c1ccc(-c3n[nH]c4ccc(O[C@H](C)c5c(C)cnnc5C)cc34)cn1)C2 [Example 142, ethyl 6-[5-[5-[(1R)-1-(3,5-dimethylpyridazin-4-yl)ethoxy]-1H-indazol-3-yl]-2-pyridyl]-2,6-diazaspiro[3.3]heptane-2-carboxylate]	25	1 to 20	20 to 100	100 to 300	1 to 20	1 to 20	1 to 20	1 to 20	20 to 100	1 to 20	100 to 300
C[C@@H](Oc1ccc2[nH]nc(-c3ccc(N4CC5(CCCS(=O)(=O)C5)C4)nc3)c2c1)c1c(Cl)cncc1Cl [Example 159, 2-[5-[5-[(1R)-1-(3,5-dichloro-4-pyridyl)ethoxy]-1H-indazol-3-yl]-2-pyridyl]-6λ^6-thia-2-azaspiro[3.5]nonane 6,6-dioxide]	16	1 to 20	1 to 20	20 to 100	20 to 100	1 to 20	1 to 20	1 to 20	1 to 20	1 to 20	1 to 20

— patent US20240109865A1, “INDAZOLE COMPOUNDS AS KINASE INHIBITORS” (TYRA BIOSCIENCES, INC., priority 2020, published 2024)
